Literature values as cited in patent US20230398127A1, “USE OF COMBINED ORAL CONTRACEPTIVES CONTAINING NOMEGESTROL ACETATE AND ESTRADIOL” (THERAMEX HQ UK LIMITED, priority 2020, published 2023).

Biological target: T1, progesterone receptor (Homo sapiens, UniProt P06401)
T1 sequence (P06401 1-933): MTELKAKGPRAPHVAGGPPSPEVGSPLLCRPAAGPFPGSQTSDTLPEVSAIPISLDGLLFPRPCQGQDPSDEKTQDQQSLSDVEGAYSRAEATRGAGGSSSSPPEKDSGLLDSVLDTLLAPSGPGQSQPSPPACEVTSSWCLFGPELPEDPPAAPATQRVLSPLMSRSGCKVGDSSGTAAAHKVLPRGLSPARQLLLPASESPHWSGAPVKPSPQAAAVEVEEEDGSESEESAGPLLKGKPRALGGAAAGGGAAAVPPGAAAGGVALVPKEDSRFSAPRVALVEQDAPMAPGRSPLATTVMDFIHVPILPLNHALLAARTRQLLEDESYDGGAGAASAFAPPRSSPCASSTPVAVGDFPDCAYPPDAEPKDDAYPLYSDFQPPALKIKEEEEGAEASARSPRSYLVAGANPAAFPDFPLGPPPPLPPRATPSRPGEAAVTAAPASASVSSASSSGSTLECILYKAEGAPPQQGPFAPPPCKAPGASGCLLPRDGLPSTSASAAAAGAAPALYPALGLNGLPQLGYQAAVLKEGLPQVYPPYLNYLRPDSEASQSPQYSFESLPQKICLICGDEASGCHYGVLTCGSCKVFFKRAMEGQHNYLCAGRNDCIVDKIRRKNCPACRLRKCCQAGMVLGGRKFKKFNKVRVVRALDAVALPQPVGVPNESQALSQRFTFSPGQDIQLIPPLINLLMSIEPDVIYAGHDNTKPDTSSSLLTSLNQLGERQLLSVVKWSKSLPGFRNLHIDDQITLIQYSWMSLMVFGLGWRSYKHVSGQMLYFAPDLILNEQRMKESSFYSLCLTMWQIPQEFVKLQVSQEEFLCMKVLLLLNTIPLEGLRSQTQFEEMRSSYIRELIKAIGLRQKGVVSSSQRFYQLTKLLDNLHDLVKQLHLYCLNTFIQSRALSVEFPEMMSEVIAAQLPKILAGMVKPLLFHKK

CC(=O)O[C@]1(C(C)=O)CC[C@H]2[C@@H]3C=C(C)C4=CC(=O)CC[C@@H]4[C@H]3CC[C@@]21C [nomegestrol acetate, 17α-acetoxy-6-methyl-19-norpregna-4,6-diene-3,20-dione]
Affinity for the progesterone receptor: strong
